Patent US8580965B2, “Substituted sulfonamide compounds” (Gruenenthal GmbH, priority 2006, dated 2013)

Target: T1, human B1R receptor (bradykinin 1 receptor) (Homo sapiens, UniProt P46663)
T1 construct: host or cells: CHO K1 cells (hB1R cells)
T1 sequence (P46663 1-353): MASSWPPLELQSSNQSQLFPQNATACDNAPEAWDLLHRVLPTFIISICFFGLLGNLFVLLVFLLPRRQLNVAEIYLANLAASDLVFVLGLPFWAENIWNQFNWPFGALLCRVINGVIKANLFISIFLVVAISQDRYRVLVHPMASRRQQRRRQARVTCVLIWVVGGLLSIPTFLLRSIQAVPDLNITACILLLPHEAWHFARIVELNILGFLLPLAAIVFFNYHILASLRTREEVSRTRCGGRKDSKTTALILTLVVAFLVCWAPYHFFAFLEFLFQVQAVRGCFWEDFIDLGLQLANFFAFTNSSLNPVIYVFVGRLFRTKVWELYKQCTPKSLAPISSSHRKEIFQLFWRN
Experiment: FLIPR Ca2+ assay (Fluo-4) on CHO K1 cells stably transfected with the human B1R gene; % activation and % inhibition at 10 μM
Assay type: cell-based
Conditions: CHO-K1, test substance 10 μM; CHO K1 hB1R cells; Ca2+ inflow after 0.5 nM Lys-Des-Arg9-bradykinin; read-out: B1R antagonism, human [10 μM] % inhibition
Protocol: The agonistic or antagonistic action of substances can be quantified on the bradykinin receptor 1 (B1R) of the species human and rat with ectopically expressing cell lines (CHO K1 cells) and with the aid of a Ca^2+-sensitive dye (Fluo-4) using a fluorescent imaging plate reader (FLIPR). The indication in % activation is based on the Ca^2+ signal after addition of Lys-Des-Arg^9-bradykinin (0.5 nM) or Des-Arg^9-bradykinin (100 nM). Antagonists result in a suppression of the Ca^2+ influx following administration of the agonist. The % inhibition in comparison with the maximum achievable inhibition is indicated.
Functional Investigation on the Bradykinin 1 Receptor (B1R)
The agonistic or antagonistic action of substances can be determined on the bradykinin 1 receptor (B1R) of the human and rat species with the following assay. According to this assay, the Ca^2+ inflow through the channel is quantified with the aid of a Ca^2+-sensitive dyes (Fluo-4 type, Molecular Probes Europe BV, Leiden, The Netherlands) in a fluorescent imaging plate reader (FLIPR, Molecular Devices, Sunnyvale, USA).
Chinese Hamster Ovary cells (CHO K1 cells) which are stably transfected with the human B1R gene (hB1R cells, Euroscreen s.a., Gosselies, Belgium) or the B1R gene of the rat (rB1R cells, Axxam, Milan, Italy) are used. For functional investigations, these cells are plated-out on black 96-well plates with a clear base (BD Biosciences, Heidelberg, Germany) in a density of 20,000-25,000 cells/well. Overnight, the cells are incubated at 37° C. and 5% CO2 in culture medium (hB1R cells: Nutrient Mixture Ham's F12, Gibco Invitrogen GmbH, Karlsruhe, Germany; rB1R cells: D-MEM/F12, Gibco Invitrogen, Karlsruhe, Germany) with 10 vol. % FBS (foetal bovine serum, Gibco Invitrogen GmbH, Karlsruhe, Germany). On the following day, the cells are loaded with 2.13 μM Fluo-4 (Molecular Probes Europe BV, Leiden, The Netherlands) in HBSS buffer (Hank's buffered saline solution, Gibco Invitrogen GmbH, Karlsruhe, Germany) […] (Sigma-Aldrich, Taufkirchen, Germany) and 10 mM HEPES (Sigma-Aldrich, Taufkirchen, Germany) for 60 min at 37° C. The plates are subsequently washed 2× with HBSS buffer, and HBSS buffer which additionally contains 0.1% BSA (bovine serum albumin; Sigma-Aldrich, Taufkirchen, Germany), 5.6 mM glucose and 0.05% gelatine (Merck KGaA, Darmstadt, Germany) is added. After a further incubation of 20 minutes at room temperature, the plates are inserted into the FLIPR for Ca^2+ measurement. The Ca^2+-dependent fluorescence is measured here before and after addition of substances (λex=488 nm, λem=540 nm). The quantification is effected by measurement of the highest fluorescence intensity (FC, fluorescence counts) over time.
The FLIPR protocol comprises 2 additions of substance. Test substances (10 μM) are first pipetted on to the cells and the Ca^2+ inflow is compared with the control (hB1R: Lys-Des-Arg^9-bradykinin 0.5 nM; rB1R: Des-Arg^9-bradykinin 100 nM). The value in % activation based on the Ca^2+ signal after addition of Lys-Des-Arg^9-bradykinin (0.5 nM) or Des-Arg^9-bradykinin (100 nM) is obtained therefrom. After incubation for 10 minutes, 0.5 nM Lys-Des-Arg^9-bradykinin (hB1R) or 100 nM Des-Arg^9-bradykinin (rB1R) are applied and the inflow of Ca^2+ is likewise determined. Antagonists lead to a suppression of the Ca^2+ inflow. % inhibition compared with the maximum inhibition which can be achieved is calculated. The compounds show a good activity on the human and on the rat receptor. The following data were determined by way of example: […]

Structure (SMILES)	inhibition at 10 µM
O=C(COC1CCN(S(=O)(=O)c2ccc(F)cc2)C1)N1CCC(O)(Cc2ccccc2)CC1 (stereo not shown) [Example 15, 1-(4-benzyl-4-hydroxy-piperidin-1-yl)-2-[1-(4-fluoro-phenylsulfonyl)-pyrrolidin-3-yloxy]-ethanone]	40.2%
O=C(COCC1CCCCN1S(=O)(=O)c1ccc(Cl)cc1)N1CCC(O)(Cc2ccccc2)CC1 (stereo not shown) [Example 53, 1-(4-benzyl-4-hydroxy-piperidin-1-yl)-2-[1-(4-chloro-phenylsulfonyl)-piperidin-2-ylmethoxy]-ethanone]	-11.4%
COc1ccc(S(=O)(=O)N(C)CCOCC(=O)N2CCC(O)(Cc3ccccc3)CC2)cc1 [Example 28, N-{2-[2-(4-benzyl-4-hydroxy-piperidin-1-yl)-2-oxo-ethoxy]-ethyl}-4-methoxy-N-methyl-phenylsulfonamide]	8.5%
O=C(COC1CCN(S(=O)(=O)c2ccc(Cl)cc2)C1)N1CCC(O)(Cc2ccccc2)CC1 (stereo not shown) [Example 31, 1-(4-benzyl-4-hydroxy-piperidin-1-yl)-2-[1-(4-chloro-phenylsulfonyl)-pyrrolidin-3-yloxy]-ethanone]	6.81%
O=C(COCC1CCCN1S(=O)(=O)c1ccc(Cl)c(Cl)c1)N1CCC(O)(c2ccccn2)CC1 (stereo not shown) [Example 36, 2-[1-(3,4-dichloro-phenylsulfonyl)-pyrrolidin-2-ylmethoxy]-1-(4′-hydroxy-3′,4′,5′,6′-tetrahydro-2′H-[2,4′]bipyridinyl-1′-yl)-ethanone]	3.64%
COc1cc(C)c(S(=O)(=O)N2CCCC(OCC(=O)N3CCC(O)(c4ccccn4)CC3)C2)c(C)c1C (stereo not shown) [Example 55, 1-(4′-hydroxy-3′,4′,5′,6′-tetrahydro-2′H-[2,4′]bipyridinyl-1′-yl)-2-[1-(4-methoxy-2,3,6-trimethyl-phenylsulfonyl)-piperidin-3-yloxy]-ethanone]	-13.2%
COc1cc(C)c(S(=O)(=O)N2CCC(OCCC(=O)N3CCC(O)(c4ccc(Cl)cc4)CC3)C2)c(C)c1 (stereo not shown) [Example 186, 1-(4-(4-chlorophenyl)-4-hydroxypiperidin-1-yl)-3-(1-(4-methoxy-2,6-dimethylphenylsulfonyl)pyrrolidin-3-yloxy)propan-1-one]	99.8%
O=C(COCC1CCCCN1S(=O)(=O)c1ccc(Cl)c(Cl)c1)N1CCC(O)(c2cccnc2)CC1 (stereo not shown) [Example 12, 2-[1-(3,4-dichloro-phenylsulfonyl)-piperidin-2-ylmethoxy]-1-(4′-hydroxy-3′,4′,5′,6′-tetrahydro-2′H-[3,4′]bipyridinyl-1′-yl)-ethanone]	55.1%
COc1cc(C)c(S(=O)(=O)N2CCN(CCOCC(=O)N3CCC(O)(Cc4ccccc4)CC3)CC2)c(C)c1C [Example 18, 1-(4-benzyl-4-hydroxy-piperidin-1-yl)-2-{2-[4-(4-methoxy-2,3,6-trimethyl-phenylsulfonyl)-piperazin-1-yl]-ethoxy}-ethanone]	23.5%
COc1cc(C)c(S(=O)(=O)N2CCCCC2COCCC(=O)N2CCC(O)(Cc3ccccc3)CC2)c(C)c1 (stereo not shown) [Example 179, 1-(4-benzyl-4-hydroxypiperidin-1-yl)-3-((1-(4-methoxy-2,6-dimethylphenylsulfonyl)piperidin-2-yl)methoxy)propan-1-one]	61.5%
O=C(COCCN1CCN(S(=O)(=O)c2ccccc2)CC1)N1CCC(O)(Cc2ccccc2)CC1 [Example 32, 2-[2-(4-phenylsulfonyl-piperazin-1-yl)-ethoxy]-1-(4-benzyl-4-hydroxy-piperidin-1-yl)-ethanone]	6.63%
COc1ccc(S(=O)(=O)N2CCCCC2COCC(=O)N2CCC(O)(Cc3ccccc3)CC2)c(OC)c1 (stereo not shown) [Example 60, 1-(4-benzyl-4-hydroxy-piperidin-1-yl)-2-[1-(2,4-dimethoxy-phenylsulfonyl)-piperidin-2-ylmethoxy]-ethanone]	-44%
COc1cc(C)c(S(=O)(=O)N2CCN(CCOCC(=O)N3CCC(O)(c4cccnc4)CC3)CC2)c(C)c1C [Example 47, 1-(4′-hydroxy-3′,4′,5′,6′-tetrahydro-2′H-[3,4′]bipyridinyl-1′-yl)-2-{2-[4-(4-methoxy-2,3,6-trimethyl-phenylsulfonyl)-piperazin-1-yl]-ethoxy}-ethanone]	-3.95%
COc1cc(C)c(S(=O)(=O)N2CCCC(OCCC(=O)N3CCC(O)(c4ccc(Cl)cc4)CC3)C2)c(C)c1 (stereo not shown) [Example 184, 1-(4-(4-chlorophenyl)-4-hydroxypiperidin-1-yl)-3-(1-(4-methoxy-2,6-dimethylphenylsulfonyl)piperidin-3-yloxy)propan-1-one]	56.1%
CN(CCCC(=O)N1CCC(O)(c2cccnc2)CC1)S(=O)(=O)c1ccc(Cl)cc1Cl [Example 116, 2,4-dichloro-N-(4-(4-hydroxy-4-(pyridin-3-yl)piperidin-1-yl)-4-oxobutyl)-N-methylphenylsulfonamide]	91.2%
COc1cc(C)c(S(=O)(=O)N2CCCCC2COCCC(=O)N2CCC(O)(c3ccc(Br)cc3)CC2)c(C)c1 (stereo not shown) [Example 182, 1-(4-(4-bromophenyl)-4-hydroxypiperidin-1-yl)-3-((1-(4-methoxy-2,6-dimethylphenylsulfonyl)piperidin-2-yl)methoxy)propan-1-one]	80%
O=C(COC1CCN(S(=O)(=O)c2ccccc2)CC1)N1CCC(O)(c2ccccn2)CC1 [Example 54, 2-(1-phenylsulfonyl-piperidin-4-yloxy)-1-(4′-hydroxy-3′,4′,5′,6′-tetrahydro-2′H-[2,4′]bipyridinyl-1′-yl)-ethanone]	-13.1%
O=C(COC1CCN(S(=O)(=O)c2ccccc2)CC1)N1CCC(O)(Cc2ccccc2)CC1 [Example 37, 2-(1-phenylsulfonyl-piperidin-4-yloxy)-1-(4-benzyl-4-hydroxy-piperidin-1-yl)-ethanone]	3.4%
COc1cc(C)c(S(=O)(=O)N2CCC(CCOCC(=O)N3CCC(O)(c4ccccn4)CC3)CC2)c(C)c1C [Example 45, 1-(4′-hydroxy-3′,4′,5′,6′-tetrahydro-2′H-[2,4′]bipyridinyl-1′-yl)-2-{2-[1-(4-methoxy-2,3,6-trimethyl-phenylsulfonyl)-piperidin-4-yl]-ethoxy}-ethanone]	-2.48%
CN(CCOCC(=O)N1CCC(O)(Cc2ccccc2)CC1)S(=O)(=O)c1cccc(C(F)(F)F)c1 [Example 38, N-{2-[2-(4-benzyl-4-hydroxy-piperidin-1-yl)-2-oxo-ethoxy]-ethyl}-N-methyl-3-trifluoromethyl-phenylsulfonamide]	3.28%
COc1ccc(S(=O)(=O)N2CCCCC2COCC(=O)N2CCC(O)(Cc3ccccc3)CC2)cc1 (stereo not shown) [Example 35, 1-(4-benzyl-4-hydroxy-piperidin-1-yl)-2-[1-(4-methoxy-phenylsulfonyl)-piperidin-2-ylmethoxy]-ethanone]	5.08%
COc1cc(C)c(S(=O)(=O)N(C)CCCC(=O)N2CCC(O)(c3cccnc3)CC2)c(C)c1 [Example 114, N-(4-(4-hydroxy-4-(pyridin-3-yl)piperidin-1-yl)-4-oxobutyl)-4-methoxy-N,2,6-trimethylphenylsulfonamide]	102%
